Test results as given in patent publication EP4786467A1, “QUINOLINONE COMPOUND, PREPARATION METHOD THEREFOR AND USE THEREOF” (Vigonvita Life Sciences Co., Ltd., priority 2023, dated 2025).

Test system: Male C57 mice
Experiment: Forced Swim Test
Type: in vivo
Conditions: 10 mg/kg, intraperitoneally, 0.5h after administration; compared to the solvent control group; Figure 1
Description: Drugs to be tested: The compounds of the present invention and the positive control compound (vortioxetine) were mixed with 5% DMSO, then mixed with 5% Solutol® HS 15, and then 90% physiological saline was added to prepare a solution of appropriate concentration. The solution was prepared immediately before use.
Animal: Male C57 mice, approximately 22g. Animals were randomly divided into a blank control group and each test drug group, with 8 animals in each group. Mice in each group were intraperitoneally injected with either the solvent or the test drug.
Experimental Procedure: Forced swimming test was performed on the mice 0.5h after drug administration. The water level in the forced swimming device was 45cm, and the water temperature was 25°C. The mice were placed in the experimental room for 1h to acclimatize before the experiment. Mice were placed in the device at the start of the experiment for 6 minutes, and the entire process was recorded by a camera. Data analysis only considered the immobility time of the mice during the last 4 minutes.

Compound: Cc1ccc(Sc2ccccc2N2CCNCC2)c(C)c1 [vortioxetine]
- immobility time of mice: significantly reduced the immobility time
